US9157088B2, “Transferases, epimerases, polynucleotides encoding these and uses thereof” (priority 2007, dated 2015)
Several values for one entry are separate records, joined by “and”; a condition that tells them apart may be missing. Identical values can stand only once.

B1: 82552_Md: GDP-L-Galactose Guanyltransferase from Malus x domesticus (apple) (protein)
chain: MLRIKRVPTVVSNYQKDEAEEVARRVGGCGRNCLNQCCIPGAKLPLYAFKKLNVNDGDTGLLGREKREPPVAFLDSLLLGEWEDRMQRGLFRYDVTACETKVIPGQFGFIAQLNEGRHLKKRPTEFRVDKVLQPFDGSKFNFTKVGQEEVLFQFEASKDGEVQFFPSAPIDVESSPSVVAINVSPIEYGHVLLIPHILERLPQRIDRESFLLALHMAAEAGNPYFRLGYNSLGAFATINHLHFQAYYLAVTFPIEKAPTKKISTLNAEVKVSELLNYPVRGLVFEGGNTLQDLSNTVSDACICLQENNIPYNVLISDSGKRIFLVPQCYAEKQALGEVRAEILDTQVNPAVWEISGHMVLKRKKDYDEASDENAWKLLAEVSLSEERFLEVNALIFEGIASGDNGNENLLKDPEVKPRSHEEVNTINKRVHCSAVNEQICRVFTM
modifications: Malus x domesticus

Assays:
[1] = biological target: T1, kiwifruit GDP-L-Galactose Guanyltransferase EST 319998 (Actinidia chinensis, UniProt A0A2R6QD99); test: Continuous coupled assay of transferase activity with guanyl acceptors; conditions: for % of D-mannose-1P / Rate: sugar phosphate as guanyl acceptor, epimerase generated substrate; for Rate: N = 6; for ability to act as acceptor for the guanyl moiety / Km / vamax: FIG. 3; for ability to act as acceptor for the guanyl moiety: physiological concentrations; for Km / vamax: varying concentrations of the guanyl acceptor, continuous coupled assay
T1 sequence (A0A2R6QD99 entry or part of it): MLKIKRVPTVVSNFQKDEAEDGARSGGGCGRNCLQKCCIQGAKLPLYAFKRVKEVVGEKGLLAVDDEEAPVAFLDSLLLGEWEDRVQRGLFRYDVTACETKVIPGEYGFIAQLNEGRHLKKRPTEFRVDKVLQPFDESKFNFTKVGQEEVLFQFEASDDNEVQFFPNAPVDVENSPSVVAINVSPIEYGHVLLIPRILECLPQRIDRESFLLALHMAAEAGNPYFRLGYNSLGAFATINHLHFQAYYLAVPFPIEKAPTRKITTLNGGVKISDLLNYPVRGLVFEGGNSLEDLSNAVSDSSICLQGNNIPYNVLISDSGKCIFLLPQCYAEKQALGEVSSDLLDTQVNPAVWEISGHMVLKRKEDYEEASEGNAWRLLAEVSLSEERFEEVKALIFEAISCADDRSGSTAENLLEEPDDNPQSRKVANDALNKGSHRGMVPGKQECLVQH
Description: Expression of genes in E. coli. The EST 319998 from young fruit of Actinidia chinensis and At4g26850 were each cloned into pET30A (Novagene, USA), their sequence checked and expressed in E. coli. The N terminal His6 tag was used to purify the protein. An empty vector control was expressed and purified in parallel. Techniques were essentially as described earlier (Laing et al., 2004).
(§1) L-Galactose dehydrogenase (Gen Bank accession AA018639 (EST 56121), 1.5 ug/assay) was cloned from an EST derived from an A. deliciosa (kiwifruit) shoot bud library with a maltose binding protein presequence and assayed as described previously (Laing et al., 2004). L-Galactose-1-Phosphate phosphatase was cloned from Arabidopsis thaliana (At3g02870, 3.1 ug/assay) and assayed as described (Laing et al., 2004). GDP-D-Mannose 3′,5′-Epimerase (198296) was cloned from dormant kiwifruit (A. deliciosa) buds three days after hydrogen cyanamide treatment and assayed as described (Wolucka et al., 2001). The former two enzymes are highly specific as to their substrates (Laing et al., 2004; Laing et al., 2004).
The assay for GDP-L-Galactose-1-Phosphate Guanyltransferase was run in 20 mM TrisCl, pH 8.0, GDP-L-Galactose, with 1 mM D-Mannose-1-Phosphate. […] In the latter case, 0.21 mg of epimerase was incubated with GDP-D-Mannose in 20 mM Tris Cl pH 8 in a total volume of 400 μL (see Wolucka et al., 2001) for 30 minutes at 20 C and then used directly in the assay at a 1 to 20 dilution. Assays were either terminated after 10 minutes by heating to 100 C for three minutes, or directly coupled to the phosphatase and L-Galactose dehydrogenase to measure product formation during the assay. Heat terminated assays were cooled on ice, centrifuged to remove precipitated protein and L-Galactose assayed using the coupling enzymes described above (see also (Laing et al., 2004)).
The applicants used two assays to characterise the enzyme, using two sources of the substrate GDP-L-Galactose. The first assay used the E. coli expressed coupling enzymes L-Galactose-1-Phosphate phosphatase and L-Galactose dehydrogenase. […] The applicants either measured the product formed by adding the coupling enzymes in the assay and measuring the time course of NADH formed, or by stopping the reaction after 10 minutes by boiling for 3 minutes and centrifuging. To this latter fixed time assay, the applicants then either adding coupling enzymes to measure L-Galactose production or using the LCMS to measure the products. The LCMS was used only to confirm the results of the coupled enzyme reaction and to measure the reverse reaction.

[2] = test system: L-Galactose dehydrogenase; test: L-Galactose dehydrogenase substrate specificity; type: biochemical, A. deliciosa (kiwifruit)
Description: as §1
The applicants used two assays to characterise the enzyme, using two sources of the substrate GDP-L-Galactose. The first assay used the E. coli expressed coupling enzymes L-Galactose-1-Phosphate phosphatase and L-Galactose dehydrogenase. […] The dehydrogenase is specific to L-Galactose, not reacting with D-Mannose or D-Galactose or a range of other sugars (Gatzek et al., 2002; Laing et al., 2004) except for L-Gulose. […] Consequently, our coupled assay would measure primarily L-Galactose and also L-Gulose. The applicants either measured the product formed by adding the coupling enzymes in the assay and measuring the time course of NADH formed, or by stopping the reaction after 10 minutes by boiling for 3 minutes and centrifuging. To this latter fixed time assay, the applicants then either adding coupling enzymes to measure L-Galactose production or using the LCMS to measure the products. The LCMS was used only to confirm the results of the coupled enzyme reaction and to measure the reverse reaction.

[3] = biological target: T1, kiwifruit GDP-L-Galactose Guanyltransferase EST 319998; test: Fixed time transferase assay, aliquots measured by LCMS; type: biochemical; conditions: acceptor Gal1P (reverse reaction)
Description: The assay for GDP-L-Galactose-1-Phosphate Guanyltransferase was run in 20 mM TrisCl, pH 8.0, GDP-L-Galactose, with 1 mM D-Mannose-1-Phosphate. GDP-L-Galactose was either used directly from the Glycoteam product (in which case high backgrounds were observed due to contaminating L-Galactose-1-Phosphate) or GDP-L-Galactose was generated using the epimerase. In the latter case, 0.21 mg of epimerase was incubated with GDP-D-Mannose in 20 mM Tris Cl pH 8 in a total volume of 400 μL (see Wolucka et al., 2001) for 30 minutes at 20 C and then used directly in the assay at a 1 to 20 dilution. Assays were either terminated after 10 minutes by heating to 100 C for three minutes, or directly coupled to the phosphatase and L-Galactose dehydrogenase to measure product formation during the assay. Heat terminated assays were cooled on ice, centrifuged to remove precipitated protein and L-Galactose assayed using the coupling enzymes described above (see also (Laing et al., 2004)). Assays for L-Galactose were linear with added L-Galactose-1-Phosphate over the range measured. Backgrounds were run using the empty vector control, which gave the same result as a boiled enzyme control.
As an alternative assay, LCMS was used to identify the forward reaction described above as well measure as the reverse pyrophosphorylase reaction where GTP (1 mM) and L-Galactose-1-Phosphate were incubated as above and the formation of GDP-L-Galactose followed. GDP-D-Mannose and GDP-L-Galactose were separated by HPLC before MS. LC-MS employed an LTQ linear ion trap mass spectrometer fitted with an ESI interface (ThermoQuest, Finnigan, San Jose, Calif., USA) coupled to an EttanTM MDLC (GE Healthcare Bio-Sciences). Separation of GDP-D-Mannose and GDP-L-Galactose was achieved using a Hypercarb column (Thermo Electron, USA), 100×2.1 mm maintained at 40 C. Solvents were (A) 50 mM ammonium acetate and (B) acetonitrile and the flow rate was 200 uL/min. The initial mobile phase, 5% B was held for 3 min, then ramped linearly to 20% B at 11 min, held for 5 min, then ramped linearly to 70% B at 19 min and held for 5 min before resetting to the original conditions. Retention times for GDP-D-Mannose and GDP-L-Galactose were 16.8 min and 17.5 min, respectively.
MS data was acquired in the negative mode using both a selective reaction monitoring (SRM) method SRM m/z 604>m/z 344, 362, 424, 442 and a selected ion monitoring (SIM) method SIM m/z 604. This SIM method monitors only the (M-H)— ion for GDP-D-Mannose and GDP-L-Galactose while the SRM method monitors the distinctive daughter ions formed by fragmenting the precursor ion (M-H)— for both compounds. Both methods maximise sensitivity by screening out any chemical noise from other compounds present. The ESI voltage, capillary temperature, sheath gas pressure, sweep gas and auxiliary gas were set at −10 V, 350° C., 25 psi, 3 psi, and 3 psi, respectively. Separation of D-Mannose-1-Phosphate and L-Galactose-1-Phosphate was achieved isocratically using a Hypercarb column (Thermo Electron, USA), 100×2.1 mm maintained at 40° C. Solvents were (A) 20 mM ammonium acetate and (B) methanol and the flow rate was 200 uL/min. Using a mobile phase of 2% B the retention times for D-Mannose-1-Phosphate and L-Galactose-1-Phosphate were 4.3 min and 4.9 min, respectively. MS data was acquired in the negative mode using both a selective reaction monitoring (SRM) method SRM m/z 259>m/z 79, 97 and a selected ion monitoring (SIM) method SIM m/z 259. […]

[4] = test system: Tobacco (Nicotiana benthamiana) leaves; test: Leaf ascorbate after transient transformation of tobacco leaves; type: in vivo; conditions: transient expression with P19
From the text: Tobacco (Nicotiana benthamiana) was transiently transformed with Agrobacterium containing the kiwifruit gene for GDP-L-Galactose Guanyltransferase (EST 319998) cloned in pGreen (Hellens et al., 2000) mixed with Agrobacterium containing the gene for the silencing suppressor P19 as previously described (Hellens et al., 2005). Controls were run using Agrobacterium containing P19 in pGreen alone. Tobacco leaves were harvested 9 days after transformation and frozen in liquid nitrogen.
Ascorbate was extracted as described previously in metaphosphoric acid without reducing agent (Davey et al., 2003; Rassam and Laing, 2005). […]

| Molecule | % of D-mannose-1P [1] | Rate [1] | ability to act as acceptor for the guanyl moiety [1] | vamax [1] | also measured |
| --- | --- | --- | --- | --- | --- |
| O=P(O)(O)OC[C@H]1OC(O)[C@H](O)[C@@H](O)[C@@H]1O (stereo partly drawn) [D-Glucose-6-P] | 24% | 0.08 nmoles/sec/ug protein | – | – | rate relative to the best acceptors ([1]; guanyl acceptor, Table 2): about 25% |
| O=C[C@@H](O)[C@@H](O)[C@H](O)[C@@H](O)CO [L-Gulose] | – | – | – | – | KM (substrate) relative to L-Galactose [2]: 30 times; maximum velocity with L-Gulose relative to L-Galactose [2]: approximately 2.5 fold; activity compared with L-Galactose ([2]; at limiting substrate concentrations): about 8% |
| O=P(O)(O)OP(=O)(O)O [pyrophosphate, inorganic pyrophosphate] | – | – | reaction was seen | 0.032±0.002 nmoles sec^−1 ug^−1 protein | Km [1]: 160 ± 50 µM |
| O=P(O)(O)O[C@H]1O[C@H](CO)[C@@H](O)[C@H](O)[C@H]1O [D-Glucose-1-P] | 106% and 74% | 0.35 nmoles/sec/ug protein and 0.24 nmoles/sec/ug protein | – | – | – |
| Nc1nc2c(ncn2[C@@H]2O[C@H](COP(=O)(O)OP(=O)(O)O[C@H]3O[C@H](CO)[C@@H](O)[C@H](O)[C@@H]3O)[C@@H](O)[C@H]2O)c(=O)[nH]1 [GDPMan, GDP-D-Mannose] | – | – | – | – | transferase activity, LCMS ([3]; 0.057 ug protein): 0 nmoles/sec/ug protein; transferase activity, LCMS ([3]; 1.14 ug protein): 0 nmoles/sec/ug protein |
| O=P(O)(O)O [phosphate, inorganic phosphate] | – | – | reaction was seen | 0.12±0.03 nmoles sec^−1 ug^−1 protein | Km [1]: 4400 ± 2000 µM |
| Nc1nc2c(ncn2[C@@H]2O[C@H](COP(=O)(O)OP(=O)(O)OP(=O)(O)O)[C@@H](O)[C@H]2O)c(=O)[nH]1 [GTP] | – | – | – | – | transferase activity, LCMS ([3]; 0.057 ug protein): 0 nmoles/sec/ug protein; transferase activity, LCMS ([3]; 1.14 ug protein): 0 nmoles/sec/ug protein |
| O=P(O)(O)O[C@H]1O[C@H](CO)[C@H](O)[C@H](O)[C@H]1O [D-Galactose-1-P] | 113% | 0.38 nmoles/sec/ug protein | – | – | – |
| O=P(O)(O)O[C@H]1O[C@H](CO)[C@@H](O)[C@H](O)[C@@H]1O [D-Mannose-1-P, D-Mannose-1-Phosphate] | 100% | 0.33 nmoles/sec/ug protein | better acceptor for the guanyl moiety than phosphate or pyrophosphate | 0.17±0.009 nmoles sec^−1 ug^−1 protein | – |
| B1 | – | – | – | – | effect on leaf ascorbate [4]: increased ascorbate levels in the leaf |
